US7504508B2, “PGD2 receptor antagonists for the treatment of inflammatory diseases” (Millennium Pharmaceuticals, Inc., priority 2002, dated 2009)

biological target: T1, cloned human CRTH2 receptor (Homo sapiens, UniProt Q9Y5Y4); assay: Radioligand membrane binding assay: inhibition of [3H] PGD2 binding to CRTH2 (Scintillation Proximity Assay); details: inhibition of [3H] PGD2 binding to membranes of HEK-293 cells stably expressing human CRTH2; SPA; 10 point curve from 10 μM; room temperature, approximately 2 hours
T1 construct: purchased Biosignal; host or cells: HEK-293 cells stably expressing human CRTH2 and G-alpha-16 (membranes)
T1 sequence (Q9Y5Y4 1-395): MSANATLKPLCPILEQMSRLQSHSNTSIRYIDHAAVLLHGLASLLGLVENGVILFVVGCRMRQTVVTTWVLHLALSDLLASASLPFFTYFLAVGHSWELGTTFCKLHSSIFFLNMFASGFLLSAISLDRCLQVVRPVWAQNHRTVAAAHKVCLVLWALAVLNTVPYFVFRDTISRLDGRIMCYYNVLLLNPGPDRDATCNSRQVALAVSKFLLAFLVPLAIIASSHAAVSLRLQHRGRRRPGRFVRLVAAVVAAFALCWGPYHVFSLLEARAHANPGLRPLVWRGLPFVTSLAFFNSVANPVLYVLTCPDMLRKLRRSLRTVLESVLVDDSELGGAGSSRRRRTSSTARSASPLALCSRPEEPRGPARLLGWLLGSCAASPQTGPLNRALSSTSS
Method: This radioligand membrane binding assay evaluates the ability of compounds to inhibit [^3H] Prostaglandin D2 (PGD2) binding to the cloned human CRTH2 receptor stably expressed in HEK-293 cells (expressing human CRTh2 receptor and α subunit or the heteronimeric G protein 16 were prepared by Biosignal Company) using Scintillation Proximity Assay.
A binding buffer containing 50 mM Tris-HCl (pH 7.5), 5 mM MgCl2 and 1 mM EDTA was prepared immediately prior to performing the assay. A bead/membrane solution at twice the final assay concentration comprising membranes (membranes bought from Biosignal) from the HEK-293 cells cloned to express CRTH2 receptor bound to and [3H] PGD2 at twotimes the final assay concentration were prepared and stored on ice before adding to wells. Cold PGD2 at twenty times the final assay concentration was prepared and stored on ice before adding to wells defining non-specific binding (NSB) corning plates #3653 were used for this assay.
10 mM stock concentrations of compounds in 100% DMSO were prepared and stored at room temperature. A 10 point concentration response curve was then constructed for each compound, starting at 10 μM (final assay concentration). The compounds were prepared at 40 times final assay concentrations with nine consequent-3-fold dilutions.
0.1 μl of each concentration of compound were added to the appropriate well of the 384 plate and 2 μl of cold PGD2 was added into the wells defining NSB. 20 μl of [^3H] PGD2 and then 20 μl of 2× of bead/membrane solution were then added to each well.
The plates were allowed to incubate at room temperature for approximately 2 hours and then counted on Packard Topcount using SPA tritium protocol for 1 minute/well.
The percent inhibition of PGD2 binding (PGD2 used at the KD value or lower) to the HEK-293 cell membranes was determined, the assay was always run as duplicate for n=1 for a total of n=2.

Row | Ki | SMILES
1 | < 10 µM | CCC(=O)N(c1ccc(C(F)(F)F)cc1)[C@@H]1C[C@H](C)N(C(=O)c2ccc(F)cc2)c2ccccc21 (racemic) [Compound B-13, (±)-Cis-N-[1-(4-Fluoro-benzoyl)-2-methyl-1,2,3,4-tetrahydro-quinolin-4-yl]-N-(4-trifluoromethyl-phenyl)-propionamide]
2 | < 10 µM | COc1ccc(C(=O)N2c3ccccc3[C@H](N(C(C)=O)c3ccc(CC(=O)O)cc3)C[C@@H]2C)cc1 (racemic) [Compound B-39, (±)-Cis-(4-{acetyl-[1-(4-methoxy-benzoyl)-2-methyl-1,2,3,4-tetrahydro-quinolin-4-yl]-amino}-phenyl)-acetic acid]
3 | < 10 µM | COc1ccc(C(=O)N2c3ccccc3[C@H](N(C(C)=O)c3cccc(C(=O)O)c3)C[C@@H]2C)cc1 (racemic) [Compound B-40, (±)-Cis-3-{acetyl-[1-(4-methoxy-benzoyl)-2-methyl-1,2,3,4-tetrahydro-quinolin-4-yl]-amino}-benzoic acid]
4 | < 10 µM | CC(=O)N(c1ccc(Oc2ccccc2)cc1)[C@@H]1C[C@H](C)N(C(=O)c2ccc(F)cc2)c2ccccc21 (racemic) [Compound B-51, (±)-Cis-N-[1-(4-fluoro-benzoyl)-2-methyl-1,2,3,4-tetrahydro-quinolin-4-yl]-N-(4-phenoxy-phenyl)-acetamide]
5 | < 60 µM | COc1cccc(C(=O)N2c3ccccc3[C@H](N(C(C)=O)C3CCCCC3)C[C@@H]2C)c1 (racemic) [Compound B-53, (±)-Cis-N-cyclohexyl-N-[1-(3-methoxy-benzoyl)-2-methyl-1,2,3,4-tetrahydro-quinolin-4-yl]-acetamide]
6 | < 10 µM | CCC(=O)N(c1ccc(Cl)cc1)[C@@H]1C[C@H](C)N(C(=O)c2ccc(F)cc2)c2ccc(OC)cc21 (racemic) [Compound B-59, (±)-Cis-N-(4-chloro-phenyl)-N-[1-(4-fluoro-benzoyl)-6-methoxy-2-methyl-1,2,3,4-tetrahydro-quinolin-4-yl]-propionamide]
7 | < 10 µM | CCC(=O)N(c1ccc(Cl)cc1)[C@@H]1C[C@H](C)N(C(=O)c2ccc(F)cc2)c2ccc(OCCN(CC)CC)cc21 (racemic) [Compound B-63, (±)-Cis-N-(4-Chloro-phenyl)-N-[6-(2-diethylamino-ethoxy)-1-(4-fluoro-benzoyl)-2-methyl-1,2,3,4-tetrahydro-quinolin-4-yl]-propionamide]
8 | < 10 µM | CCOC(=O)C(C)(C)Oc1ccc2c(c1)[C@H](N(C(=O)CC)c1ccc(Cl)cc1)C[C@H](C)N2C(=O)c1ccc(F)cc1 (racemic) [Compound B-64, (±)-Cis-2-[4-[(4-chloro-phenyl)-propionyl-amino]-1-(4-fluoro-benzoyl)-2-methyl-1,2,3,4-tetrahydro-quinolin-6-yloxy]-2-methyl-propionic acid ethyl ester]
9 | < 10 µM | CCC(=O)N(c1ccc(Cl)cc1)[C@@H]1C[C@H](C)N(C(=O)c2ccc(F)cc2)c2ccc(OCC(=O)O)cc21 (racemic) [Compound B-65, (±)-Cis-[4-[(4-chloro-phenyl)-propionyl-amino]-1-(4-fluoro-benzoyl)-2-methyl-1,2,3,4tetrahydro-quinolin-6-yloxy]-acetic acid]
10 | < 10 µM | CCC(=O)N(c1ccc(Cl)cc1)[C@@H]1C[C@H](C)N(C(=O)c2ccc(F)cc2)c2ccc(OC(C)(C)C(=O)O)cc21 (racemic) [Compound B-66, (±)-Cis-2-[4-[(4-chloro-phenyl)-propionyl-amino]-1-(4-fluoro-benzoyl)-2-methyl-1,2,3,4-tetrahydro-quinolin-6-yloxy]-2-methyl-propionic acid]
11 | < 10 µM | CCC(=O)N(c1ccc(Cl)cc1)[C@@H]1C[C@H](C)N(C(=O)c2ccc(F)cc2)c2ccc(N3CCOCC3)cc21 (racemic) [Compound B-70, (±)-Cis-N-(4-chloro-phenyl)-N-[1-(4-fluoro-benzoyl)-2-methyl-6-morpholin-4-yl-1,2,3,4-tetrahydro-quinolin-4-yl]-propionamide]
